Experimental data: patent US9487489B2, “Halogen-substituted pyrazole derivatives as pest-control agents” (BAYER CROPSCIENCE AKTIENGESELLSCHAFT, priority 2013, dated 2016)

Key:
[1] = tested on: adult houseflies (Musca domestica); assay: Musca domestica test (MUSCDO); assay type: in vivo; details: application rate 100 ppm; after 2 days
Method: F. Musca domestica Test (MUSCDO)
Solvent: dimethyl sulphoxide
To produce a suitable preparation of active compound, 10 mg of active compound are mixed with 0.5 ml of dimethyl sulphoxide, and the concentrate is diluted with water to the desired concentration.
Vessels containing a sponge treated with sugar solution and the active compound preparation of the desired concentration are populated with 10 adult houseflies (Musca domestica).
After 2 days, the kill in % is determined. 100% means that all of the flies have been killed; 0% means that none of the flies have been killed.

[2] = tested on: L1 larvae of the Australian sheep blowfly (Lucilia cuprina); assay: Lucilia cuprina test (LUCICU); assay type: in vivo; details: application rate 100 ppm; after 2 days
Summary of the method: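 Percent mortality read at 2 days; 100% = all larvae killed, 0% = none. Test compound, predissolved in DMSO and water-diluted to the wanted level, was mixed into minced horsemeat holding roughly 20 first-instar larvae.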

[3] = tested on: greenhouse red spider mite (Tetranychus urticae); assay: Tetranychus urticae spray test, OP-resistant (TETRUR); assay type: in vivo; details: bean leaf discs, after 6 days
Summary of the method: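 Percent kill, scored 6 days post-spray (0% = none dead, 100% = all dead), on Phaseolus vulgaris leaf discs infested with every life stage of the OP-resistant spider mite. Compound dissolved in acetone plus DMF, diluted to test concentration with emulsifier-containing water (1000 ppm).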

[4] = tested on: larvae of the mustard beetle (Phaedon cochleariae); assay: Phaedon cochleariae spray test (PHAECO); assay type: in vivo; details: Chinese cabbage leaf discs, after 7 days
Summary of the method: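 Kill of mustard beetle larvae is read as % mortality 7 days after spraying. Spray liquid: active compound in acetone plus dimethylformamide, brought up with water holding 1000 ppm alkylaryl polyglycol ether emulsifier and diluted further in emulsifier-water.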

[5] = tested on: engorged adult female cattle ticks (Boophilus microplus); assay: Boophilus microplus injection test (BOOPMI Inj); assay type: in vivo; details: application rate 20 μg/animal; injection into abdomen; assessed after 7 days
Summary of the method: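 Efficacy is read at 7 days as fertile egg laying (100% = no fertile eggs laid; 0% = all eggs fertile), with eggs of unclear fertility stored until larvae hatch at about 42 days. Five engorged adult females per dose each receive an abdominal injection of 1 μl compound dissolved in DMSO.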

[6] = tested on: adult cat fleas (Ctenocephalides felis); assay: Ctenocephalides felis oral test (CTECFE); assay type: in vivo; details: application rate 100 ppm in citrated cattle blood; after 2 days
Summary of the method: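 Mortality read at 2 days as percent of fleas killed. Compound predissolved in DMSO, diluted into citrated cattle blood and offered to roughly 20 unfed adult C. felis via parafilm membrane feeder.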

[7] = tested on: caterpillars of the armyworm (Spodoptera frugiperda); assay: Spodoptera frugiperda spray test (SPODFR); assay type: in vivo; details: maize leaf discs, after 7 days
Summary of the method: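 Percent kill read at day 7 on caterpillar-infested maize leaf discs. Discs were first sprayed with aqueous emulsifier-containing (1000 ppm) preparations made from acetone/dimethylformamide solutions, and dried. Scale: 0% none dead, 100% all dead.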

[8] = tested on: adult cat fleas (Ctenocephalides felis); assay: Ctenocephalides felis in vitro contact test with adult cat fleas (T1); details: after 48 h
Summary of the method: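 Adult cat fleas (Ctenocephalides felis), 5-10 per tube, were exposed to the inner surface of 25 ml test tubes coated with compound in acetone. Tubes were incubated lying flat under ambient conditions. Efficacy was then read by standing tubes upright and knocking the fleas to the floor. Fleas that stayed motionless or moved uncoordinatedly counted as dead or moribund, where 100% means all fleas dead or moribund and 0% means none harmed.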

[9] = logP determination by HPLC on a reversed-phase column (C18), EEC Directive 79/831 Annex V.A8; assay type: physicochemical; details: HPLC on reversed-phase column (C18), acetonitrile/water with formic acid, EEC Directive 79/831 Annex V.A8
Summary of the method: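 Per EEC 79/831 Annex V.A8, values derive from HPLC retention at 2.0 ml/min and 55° C on a 50*4.6 C18 column. The 10→95% acetonitrile gradient (0.1%/0.09% formic acid) lasted 4.25 min plus a 1.25 min hold; mass detection was by MSD.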

Row | Compound | efficacy (kill in %) [1] [%] | efficacy (kill in %) [2] [%] | efficacy in % ([3]; application rate 500 g/ha) [%] | efficacy in % ([4]; application rate 500 g/ha) [%] | efficacy (laying of fertile eggs) [5] [%] | efficacy (kill in %) [6] [%] | efficacy in % ([7]; application rate 500 g/ha) [%] | efficacy (dead or moribund fleas) ([8]; application rate 1 μg/cm^2) [%] | efficacy (dead or moribund fleas) ([8]; application rate 5 μg/cm^2) [%] | efficacy in % ([3]; application rate 100 g/ha) [%] | efficacy in % ([7]; application rate 100 g/ha) [%] | logP [9] | efficacy in % ([4]; application rate 100 g/ha) [%]
1 | Cn1nc(C(F)(F)C(F)(F)F)c(C(F)(F)F)c1-n1cc(-c2ccnc(C(=O)NC3(C#N)CC3)c2)cn1 [Ic-76] | 80 | 100 | 80 | 100 | 100 | 100 | 100 | – | – | – | – | – | –
2 | CC(NC(=O)c1cc(-c2cnn(-c3c(C(F)(F)F)c(C(F)(F)C(F)(F)F)nn3C)c2)ccc1Cl)C(N)=O (stereo not drawn) [Ic-154] | 90 | 100 | 100 | 100 | 100 | 100 | 100 | 100 | 80 | – | – | – | –
3 | Cn1nc(C(F)(F)C(F)(F)F)c(C(F)(F)F)c1-n1cc(-c2cc(C(=O)NC3(C#N)CC3)cc(F)c2F)cn1 [Ic-64] | 80 | 100 | – | 100 | 100 | 100 | – | – | – | 100 | 100 | – | –
4 | Cn1nc(C(F)(F)C(F)(F)F)c(C(F)(F)F)c1-n1cc(-c2ccc(Cl)c(C(=O)Nc3ccccc3)c2)cn1 [Ic-136] | 90 | 100 | 100 | 100 | 100 | 100 | 100 | – | – | – | – | – | –
5 | Cn1nc(C(F)(F)C(F)(F)F)c(C(F)(F)F)c1-n1cc(-c2cc(F)cc(C(=O)NC3CC3)c2)cn1 [Ic-39] | 100 | 100 | – | 100 | 100 | 100 | 100 | – | – | 100 | 100 | – | –
6 | Cn1nc(C(F)(F)C(F)(F)F)c(C(F)(F)F)c1-n1cc(-c2cc(Cl)cc(C(=O)NC3CC3)c2)cn1 [Ic-44] | 80 | 100 | 80 | 100 | 100 | 100 | 100 | – | – | – | – | – | –
7 | Cc1nn(-c2c(C(F)(F)F)c(C(F)(F)C(F)(F)F)nn2C)cc1-c1ccc(Cl)c(C(=O)NC2CC2)c1 [Ic-12] | 100 | 100 | – | – | 100 | 100 | – | 100 | 100 | – | 100 | 3.97 | 100
8 | Cn1nc(C(F)(F)C(F)(F)F)c(C(F)(F)F)c1-n1cc(-c2ccc(Cl)c(C(=O)Nc3ccccn3)c2)cn1 [Ic-140] | 90 | 100 | 100 | 100 | 100 | 100 | 100 | 100 | 100 | – | – | – | –
